Legend:
Test in all cases: selective drug sensitivity score (sDSS, relative to normal bone marrow) (sDSS (score)); higher = more potent and effective on the cell line relative to normal bone marrow cells
Settings in all cases: 72 h
[1] = system: P30-OHKUBO
[2] = system: COG-LL-394h
[3] = system: KARPAS-45
[4] = system: MN-60
[5] = system: REH
[6] = system: RPMI-8402
[7] = system: P12-ICHIKAWA
[8] = system: NALM-6
[9] = system: DND-41
[10] = system: NALL-1
[11] = system: 380
[12] = system: ALL-SIL
[13] = system: PEER
[14] = system: PF-382
[15] = system: COG-LL-319h
[16] = system: CCRF-CEM
[17] = system: MOLT-14
[18] = system: JURKAT
[19] = system: TANOUE
[20] = system: MHH-CALL-3
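Also: ALL cell lines in 384-well plates, five doses spanning 10,000-fold, each plate scaled between vehicle and 100 µmol/L benzalkonium chloride controls, sDSS an adapted area-under-curve metric.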

SMILES	selective drug sensitivity score [1]	selective drug sensitivity score [2]	selective drug sensitivity score [3]	selective drug sensitivity score [4]	selective drug sensitivity score [5]	selective drug sensitivity score [6]	selective drug sensitivity score [7]	selective drug sensitivity score [8]	selective drug sensitivity score [9]	selective drug sensitivity score [10]	selective drug sensitivity score [11]	selective drug sensitivity score [12]	selective drug sensitivity score [13]	selective drug sensitivity score [14]	selective drug sensitivity score [15]	selective drug sensitivity score [16]	selective drug sensitivity score [17]	selective drug sensitivity score [18]	selective drug sensitivity score [19]	selective drug sensitivity score [20]
CCn1cc(-c2ccnc3[nH]c(-c4cccc(CN(C)C)c4)cc23)c(-c2ccc(NC(=O)N(C)C)cc2)n1 (top concentration 1000 nM)	26.6	0.36	24.1	-1.84	19.3	8.86	15.4	13.8	-0.84	13.1	19	21.3	20.4	9.26	22.9	18	15.9	-1.84	-1.84	2.06
CC(C)(C)C[C@@H]1N[C@@H](C(=O)N[C@H]2CC[C@H](O)CC2)[C@H](c2cccc(Cl)c2F)[C@]12C(=O)Nc1cc(Cl)ccc12 (top concentration 10000 nM)	12.4	6.46	-2.64	-0.74	3.56	-3.34	-5.24	6.26	-3.84	-7.64	14.3	-3.34	-2.04	-3.94	13.9	-3.94	9.56	-4.74	-7.84	16.9
Cc1c(Cn2c(C)nc3c(C(=O)O)cc(N4CCOCC4)cc32)cccc1C(F)(F)F (top concentration 10000 nM)	2.38	-0.02	0.08	-0.02	0.68	-0.02	-0.02	-0.02	1.78	0.68	-0.02	-0.02	-0.02	-0.02	-0.02	0.38	0.38	-0.02	-0.02	-0.02
Nc1ncnc2c1c(COc1cccc(Cl)c1)nn2C1CCOCC1 (top concentration 10000 nM)	0.56	-0.64	0.26	2.96	-0.64	0.46	-0.54	-0.54	-0.64	-0.64	5.46	-0.64	-0.64	-0.24	3.96	-0.44	-0.64	0.06	1.16	0.66
Cn1cc(C[C@@H](N)C(=O)O)c2ccccc21 [1-methyl-D-tryptophan] (top concentration 5000 nM)	0.58	-0.62	-0.62	-0.62	3.68	-0.62	-0.62	-0.62	-0.62	-0.62	-0.02	-0.62	-0.62	-0.62	-0.62	-0.62	-0.62	-0.62	-0.62	1.48
COc1cc2c(cc1OCCCN1CCCC1)N=C(N)C21CCC1 [A-366] (top concentration 25000 nM)	2.56	2.06	5.16	-1.84	0.36	4.06	-0.84	-1.84	4.56	-1.84	-1.84	-0.34	1.46	-0.84	3.16	2.16	3.16	-1.04	-1.84	-1.84
COCCOc1cnc2ccn([C@H](C)c3nnc4c(F)cc(-c5cnn(C)c5)cn34)c(=O)c2c1 [AMG-337] (top concentration 10000 nM)	0.84	-0.06	-0.06	-0.06	1.24	-0.06	-0.06	-0.06	-0.06	2.14	3.04	-0.06	-0.06	-0.06	-0.06	-0.06	-0.06	-0.06	-0.06	4.94
COc1cc(N2CCC(N3CCN(C)CC3)CC2)ccc1Nc1ncnc(Nc2ccccc2S(=O)(=O)C(C)C)n1 [ASP3026] (top concentration 10000 nM)	-1.04	2.36	0.56	0.66	3.26	0.56	-1.44	1.86	0.56	-2.64	-2.74	0.16	-0.24	-0.04	-4.04	-0.14	1.36	-1.54	-2.64	-4.04
CN[C@@H](C)C(=O)N[C@H]1CN(C(=O)CC(C)C)CC[C@H]2CC[C@@H](C(=O)NC(c3ccccc3)c3ccccc3)N2C1=O [AT-406] (top concentration 10000 nM)	-1.06	5.84	-1.26	-1.26	5.74	-0.96	-1.26	-1.26	-1.26	5.34	-1.26	-1.26	-1.16	-1.26	-1.06	1.34	-1.26	-1.26	-1.26	-1.26

Reference: the supplement of paper PMC8967900
